By IC50 is commonly meant the midpoint of a concentration-inhibition curve. Lower therefore signals greater potency.

These results are taken from publication PMC9298037 (Chemmedchem, 2021).

Where two headings read alike, the source gives them in different places. Bounds are passed on as bounds.

Experiment [1] has as its target T1, MELK (Homo sapiens, UniProt Q14680). Put plainly: biochemical. The note with it: for inhibition at 10 µM: read-out: Inh. %, single-point screen at 10uM concentration, Table S1.
The target of experiment [2] is T1, MELK.

T1 sequence (Q14680 whole entry): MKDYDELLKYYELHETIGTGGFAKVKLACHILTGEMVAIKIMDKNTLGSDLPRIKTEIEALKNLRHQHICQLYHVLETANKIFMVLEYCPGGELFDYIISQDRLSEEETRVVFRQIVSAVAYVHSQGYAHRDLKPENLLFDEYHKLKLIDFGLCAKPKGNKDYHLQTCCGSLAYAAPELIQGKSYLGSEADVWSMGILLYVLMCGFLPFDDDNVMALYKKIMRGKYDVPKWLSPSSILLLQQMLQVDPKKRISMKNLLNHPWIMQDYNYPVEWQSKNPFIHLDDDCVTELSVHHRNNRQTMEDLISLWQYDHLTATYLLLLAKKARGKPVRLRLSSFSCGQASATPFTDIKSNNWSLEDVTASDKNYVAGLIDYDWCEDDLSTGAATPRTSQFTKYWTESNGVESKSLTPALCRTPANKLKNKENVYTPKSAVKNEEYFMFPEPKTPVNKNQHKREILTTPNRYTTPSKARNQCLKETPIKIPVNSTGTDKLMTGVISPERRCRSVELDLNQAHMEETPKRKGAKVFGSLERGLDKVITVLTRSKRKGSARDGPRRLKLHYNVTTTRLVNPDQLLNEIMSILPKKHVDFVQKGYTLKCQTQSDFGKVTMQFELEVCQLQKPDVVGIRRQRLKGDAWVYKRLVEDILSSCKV

Turning to `COc1ccc(-c2nc3c(C)c4ccccc4cn3n2)cc1` [Compound 4, 2‐(4‐methoxyphenyl)‐10‐methyl‐[1,2,4]triazolo[1,5‐b]isoquinoline], at MELK [1], the IC50 amounted to 3.67 µM and the inhibition at 10 µM is more than 40%. Turning to `COc1cccc(-c2nc3c(C)c4ccccc4cn3n2)c1` [Compound 5, 2‐(3‐methoxyphenyl)‐10‐methyl‐[1,2,4]triazolo[1,5‐b]isoquinoline], at MELK [1], the half-maximal inhibitory concentration (IC50) was 4.93 µM and the inhibition at 10 µM is more than 40%. For the molecule `Cc1c2ccccc2cn2nc(-c3ccc(C(F)(F)F)cc3)nc12` [Compound 8, 10‐methyl‐2‐(4‐(trifluoromethyl)phenyl)‐[1,2,4]triazolo[1,5‐b]isoquinoline], on MELK [1], the inhibition at 10 µM is more than 40%. At MELK [1], `Cc1c2ccccc2cn2nc(-c3ccccn3)nc12` [Compound 11, 10‐methyl‐2‐(pyridin‐2‐yl)‐[1,2,4]triazolo[1,5‐b]isoquinoline] returned an IC50 of 6.3 µM. `Cc1c2ccccc2cn2nc(-c3ccc(Cl)cc3Cl)nc12` [Compound 13, 2‐(2,4‐dichlorophenyl)‐10‐methyl‐[1,2,4]triazolo[1,5‐b]isoquinoline] yielded an IC50 at MELK [1] of 24.1 µM. `CCc1c2ccccc2cn2nc(-c3ccc(Cl)cc3)nc12` [Compound 17, 2‐(4‐chlorophenyl)‐10‐ethyl‐[1,2,4]triazolo[1,5‐b]isoquinoline] registered an IC50 on MELK [1] of more than 3.7 µM. Turning to `CCc1c2ccccc2cn2nc(-c3ccc(OC)cc3)nc12` [Compound 18, 10‐ethyl‐2‐(4‐methoxyphenyl)‐[1,2,4]triazolo[1,5‐b]isoquinoline], the “inhibitory activity (in words)” value at MELK [2] (MELK) is reported as “sub‐micromolar”. The activity boost amounted to 2.5 fold on MELK [2] (over 3-methoxyphenyl counterpart 19) and 4.5 fold at MELK [2] (over 10-methyl counterpart 4). On MELK [1], this molecule registered an IC50 of 0.794 µM. `CCc1c2ccccc2cn2nc(-c3cccc(OC)c3)nc12` [Compound 19, 10‐ethyl‐2‐(3‐methoxyphenyl)‐[1,2,4]triazolo[1,5‐b]isoquinoline]: the activity boost on MELK [2] (in comparison to compound 5 (10-ethyl vs 10-methyl)) is on record as 2.5 fold. At MELK [1], the IC50 turned out to be 2.04 µM and the inhibition at 10 µM was more than 40%. Turning to `c1ccc(-c2nc3c4ccccc4ccn3n2)cc1` [ID 1855, 2‐phenyl‐[1,2,4]triazolo[3,2‐a]isoquinoline], the inhibition at 10 µM on MELK [1] was more than 40%.
